“And” between values parts separate entries of the source, which are not always exact repeats. Equal entries are not always repeated.
Experiments:
human sebaceous glands = experiment: Ex vivo assay with sebaceous glands (organ culture, total lipid quantification); format: cell-based; conditions: day 6; for Total fat quantification, Average (1-12): average of 12 SG test samples, untreated 17.5
Source text: 2. Ex Vivo Assay with Sebaceous Glands (SG)
Organ culture of human sebaceous glands has been performed in order to verify the modulatory activity of H-(beta-Ala)-Pro-Dab-NH-benzyl on sebum secretion. A viability test has been performed in parallel. Human sebaceous glands from skin sample od labia minora have been used (donor). The epidermis of the full thickness sample has been carefully removed and the sebaceous glands have been micro-dissected.
The sebaceous glands have been pooled in groups of eight and cultured up to day 6. SGs are cultured in 24 well plate immersed in 500 μl of SGs medium (modified Williams'E medium). After 24 hours the culture medium has been changed and substituted with the medium containing the substance to be tested. The medium has been renewed at day 3 and 5 of culture. At day 6 the glands have been collected and used for the quantification of lipids and proteins. Briefly the SGs have been homogenized in isopropyl alcohol (IPOH) in order to extract lipids and let the protein undissolved. An aliquot of IPOH has been withdrawn to measure the lipids whereas the rest has been evaporated in a vacuum centrifuge. The remaining dry pellet has been minced again in presence of protein lysis buffer. The lipids dissolved in IPOH and the protein dissolved in the lysis buffer have been quantified by infrared spectroscopy (Millipore Direct Detect). The total lipid amount has been obtained by normalizing the quantified lipids upon the quantified proteins (i.e. mg of lipids/mg of proteins).

DPP4 = molecular target: T1, DPP4 (Homo sapiens, UniProt P27487); experiment: Dipeptidyl Peptidase 4 (DPP4) protease assay (DPP4 Drug Discovery Kit, fluorogenic substrate H-Gly-Pro-AMC); format: biochemical; conditions: for DPP4 activity: % activity remaining
T1 construct: purchased Enzo Life Sciences
Description: 1. Dipeptiyl Peptidase 4 (DPP4) Protease Assay Method
The potential of H-(beta-Ala)-Pro-Dab-NH-benzyl [CAS 823202-99-9], respectively N-Pal-Gly-His-Lys [147732-56-7]/N-Pal-Gly-Gln-Pro-Arg [221227-05-0] (2:1) to inhibit DPP4 was tested using the DPP4 Drug Discovery Kit from Enzo Life Sciences. In brief: DPP4 is pre-incubated for 10 minutes with inhibitors and then added to a quenched fluorogenic substrate (H-Gly-Pro-AMC). Cleavage of the AMC-moiety from the c-terminus of the peptide substrate by DPP4 increases its fluorescence intensity at 460 nm. The AMC signal is then recorded using a fluorescence microplate reader at Ex/Em=380/460 every minute for a total time of 20 min. A “best fit” line is generated with the data points of the first 10-20 min and the slope calculated. The remaining activity in the presence of inhibitor was calculated as follows: % activity remaining (with inhibitor)=(slope of inhibitor-sample/slope of control-sample)*100.

T1 sequence (P27487 whole entry): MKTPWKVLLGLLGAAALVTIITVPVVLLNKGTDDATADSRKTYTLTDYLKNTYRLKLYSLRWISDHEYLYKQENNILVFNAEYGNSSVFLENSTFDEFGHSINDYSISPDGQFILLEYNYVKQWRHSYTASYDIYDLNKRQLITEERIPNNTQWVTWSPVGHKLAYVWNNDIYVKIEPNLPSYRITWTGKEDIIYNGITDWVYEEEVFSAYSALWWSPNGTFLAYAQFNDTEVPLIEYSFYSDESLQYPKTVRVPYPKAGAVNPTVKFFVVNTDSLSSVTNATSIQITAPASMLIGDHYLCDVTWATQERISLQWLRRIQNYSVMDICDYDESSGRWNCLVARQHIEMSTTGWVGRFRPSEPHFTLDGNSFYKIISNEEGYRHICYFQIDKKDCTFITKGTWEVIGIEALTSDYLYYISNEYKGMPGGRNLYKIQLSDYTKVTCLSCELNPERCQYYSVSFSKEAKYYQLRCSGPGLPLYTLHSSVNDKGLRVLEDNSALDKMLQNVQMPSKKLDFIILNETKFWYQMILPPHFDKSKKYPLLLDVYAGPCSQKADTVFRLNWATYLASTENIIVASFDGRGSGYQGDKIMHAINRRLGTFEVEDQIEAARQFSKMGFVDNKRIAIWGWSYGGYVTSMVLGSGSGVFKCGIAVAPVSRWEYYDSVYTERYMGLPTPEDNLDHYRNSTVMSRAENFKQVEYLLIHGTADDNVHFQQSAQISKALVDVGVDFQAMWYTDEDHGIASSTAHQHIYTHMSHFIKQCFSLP

Row | Compound | Total fat quantification, Average (1-12) (human sebaceous glands; 5 μM) [mg lipid/mg protein] | Total fat quantification (human sebaceous glands; 5 μM, single SG test samples 1-12) | DPP4 activity (DPP4; 0.77 ppm / 1.56 μM) [%] | DPP4 activity (DPP4; 1.55 ppm / 3.13 μM) [%] | DPP4 activity (DPP4; 3.10 ppm / 6.25 μM) [%] | DPP4 activity (DPP4; 6.19 ppm / 12.50 μM) [%] | DPP4 activity (DPP4; 12.39 ppm / 25.00 μM) [%] | DPP4 activity (DPP4; 24.78 ppm / 50.00 μM) [%] | DPP4 activity (DPP4; 49.55 ppm / 100.00 μM) [%] | DPP4 activity (DPP4; 99.10 ppm / 200.00 μM) [%] | Effect on DPP4 (in words) (DPP4; summary of tables 1 and 2) | Total fat quantification, Average (1-12) (human sebaceous glands; 10 μM) [mg lipid/mg protein]
1 | COc1cc(CNC(=O)CCCC/C=C/C(C)C)ccc1O [Capsaicin] | 15.5 | 15.8 mg lipid/mg protein and 15.7 mg lipid/mg protein and 15.5 mg lipid/mg protein and 15.6 mg lipid/mg protein and 15.4 mg lipid/mg protein and 15.3 mg lipid/mg protein and 15.1 mg lipid/mg protein | – | – | – | – | – | – | – | – | – | –
2 | H-(beta-Ala)-Pro-Dab-NH-benzyl | – | – | 74 | 58 | 40 | 24 | 14 | 7 | 4 | 2 | capable to inhibit DPP4 | 14.2
